Test results: patent publication US20230320994A1, “FUNCTIONAL IONIZABLE PHOSPHOLIPIDS” (The Board of Regents of The University of Texas System, priority 2020, published 2023)

Tested on: C57BL/6 mice
Assay: In vivo tolerability: kidney and liver function markers
Settings: 24 hours post injection, compared with PBS
Experimental: 10A1P16-MDOA (spleen specific) iPLNPs were administrated intravenously (IV) to C57BL/6 mice (0.25 mg kg−1). Lipopolysaccharide (LPS, 5 mg kg−1, IP) was used as the positive control and PBS (IV) was examined as the negative control. 24 hours post injection, kidney function (BUN and CREA) and liver function (ALT and AST) were evaluated. […] Data are presented as mean±s.d. (n=3 biologically independent mice). Statistical significance was analyzed by the two-tailed unpaired t-test: ****, P<0.0001; ***, P<0.001; **, P<0.01; *, P<0.05.

Lipopolysaccharide [LPS] was tested, and the “kidney function (BUN and CREA) and liver function (ALT and AST)” value was “severe kidney and liver injury”.
